Test results from US9187472B2 (AbbVie Inc., priority 2012, dated 2015).
pIC50: −log10 of the molar value.

What follows are compounds tested on PC3 cells (assay: NAMPT Cell Proliferation Assay). Settings: Homo sapiens, PC-3, 120 h, 5 days incubation, cell viability by Cell Titer Glo.
Format: cell-based
Experimental: NAMPT Cell Proliferation Assay
PC3 cells were seeded in 96-well black plates (Corning #3904) at 500 cells/well in 90 μl of RPMI media containing 10% heat-inactivated FBS and incubated overnight at 37° C. and 5% CO2 to allow cells to attach to wells. The following day, test compounds were serially diluted in neat DMSO to 1000× final concentrations prior to dilution with RPMI media to 10× and 1% DMSO. Ten μL of the 10× compounds were then transferred to wells containing cells to produce a dose response of 10-fold dilutions from 10 μM to 1×10^−5 μM. Cells were incubated for 5 days at 37° C. and 5% CO2, then cell viability was measured using Cell Titer Glo reagent (Promega #G7571). Percent inhibition values were calculated and fitted to a sigmoidal dose response curves using Assay Explorer software to determine IC50s.

pIC50 | Structure (SMILES)
7.16 | O=C(NCc1ccn2ccnc2c1)c1ccc(C2CCN(C(=O)c3ccc(C4CC4)cn3)CC2)cc1 [Example 1094, 4-{1-[(5-cyclopropylpyridin-2-yl)carbonyl]piperidin-4-yl}-N-(imidazo[1,2-a]pyridin-7-ylmethyl)benzamide]
7.76 | O=C(NCc1cn2ccnc2cn1)c1ccc(C2CCN(C(=O)c3ccccc3)CC2)cc1F [Example 1159, 4-(1-benzoylpiperidin-4-yl)-2-fluoro-N-(imidazo[1,2-a]pyrazin-6-ylmethyl)benzamide]
8.73 | Cn1ncc2cccc(C(=O)N3CCC(c4ccc(NC(=O)NCc5ccn6ccnc6c5)cc4)CC3)c21 [Example 1146, 1-(imidazo[1,2-a]pyridin-7-ylmethyl)-3-(4-{1-[(1-methyl-1H-indazol-7-yl)carbonyl]piperidin-4-yl}phenyl)urea]
8.63 | O=C(NCc1ccn2ccnc2c1)Nc1ccc(C2CCN(C(=O)c3cccc4c3CCC4=O)CC2)cc1 [Example 953, 1-(imidazo[1,2-a]pyridin-7-ylmethyl)-3-(4-{1-[(1-oxo-2,3-dihydro-1H-inden-4-yl)carbonyl]piperidin-4-yl}phenyl)urea]
9.19 | O=C(Cc1ccc2nccn2c1)Nc1ccc(C2CCN(C(=O)c3ccccc3F)CC2)cc1 [Example 863, N-{4-[1-(2-fluorobenzoyl)piperidin-4-yl]phenyl}-2-(imidazo[1,2-a]pyridin-6-yl)acetamide]
8.60 | CCc1nc(C(=O)N2CCC(c3ccc(NC(=O)NCc4ccn5ccnc5c4)cc3)CC2)cs1 [Example 1058, 1-(4-{1-[(2-ethyl-1,3-thiazol-4-yl)carbonyl]piperidin-4-yl}phenyl)-3-(imidazo[1,2-a]pyridin-7-ylmethyl)urea]
7.65 | O=C(NCc1ccn2ccnc2c1)c1ccc(C2CCN(C(=O)COC3CCCCC3)CC2)cc1 [Example 971, 4-{1-[(cyclohexyloxy)acetyl]piperidin-4-yl}-N-(imidazo[1,2-a]pyridin-7-ylmethyl)benzamide]
6.95 | CC(C)(C)OC(=O)N1CCC(c2ccc(C(=O)NCc3ccc4nccn4n3)cc2)CC1 [Example 855, tert-butyl 4-{4-[(imidazo[1,2-b]pyridazin-6-ylmethyl)carbamoyl]phenyl}piperidine-1-carboxylate]
8.79 | O=C(NCc1ccn2ccnc2c1)Nc1ccc(C2CCN(C(=O)c3ccnc(Cl)c3F)CC2)cc1 [Example 1018, 1-(4-{1-[(2-chloro-3-fluoropyridin-4-yl)carbonyl]piperidin-4-yl}phenyl)-3-(imidazo[1,2-a]pyridin-7-ylmethyl)urea]
9.23 | CC(C)(C)Cn1cc(-c2ccc(C(=O)NCc3cn4ccnc4cn3)s2)cn1 [Example 858, 5-[1-(2,2-dimethylpropyl)-1H-pyrazol-4-yl]-N-(imidazo[1,2-a]pyrazin-6-ylmethyl)thiophene-2-carboxamide]
8.11 | O=C(NCc1ccn2ccnc2c1)Nc1ccc(C2CCN(C(=O)c3cnc4ccccc4n3)CC2)cc1 [Example 1038, 1-(imidazo[1,2-a]pyridin-7-ylmethyl)-3-{4-[1-(quinoxalin-2-ylcarbonyl)piperidin-4-yl]phenyl}urea]
8.45 | O=C(NCc1ccn2ccnc2c1)Nc1ccc(C2CCN(C(=O)C3Cc4ccccc4O3)CC2)cc1 (stereo not drawn) [Example 1024, 1-{4-[1-(2,3-dihydro-1-benzofuran-2-ylcarbonyl)piperidin-4-yl]phenyl}-3-(imidazo[1,2-a]pyridin-7-ylmethyl)urea]
8.59 | C/C=C(\C)C(=O)N1CCC(c2ccc(NC(=O)NCc3ccn4ccnc4c3)cc2)CC1 [Example 955, 1-(imidazo[1,2-a]pyridin-7-ylmethyl)-3-(4-{1-[(2E)-2-methylbut-2-enoyl]piperidin-4-yl}phenyl)urea]
8.12 | O=C(NCc1ccn2ccnc2c1)Nc1ccc(C2CCN(C(=O)c3ccccn3)CC2)cc1F [Example 1075, 1-{2-fluoro-4-[1-(pyridin-2-ylcarbonyl)piperidin-4-yl]phenyl}-3-(imidazo[1,2-a]pyridin-7-ylmethyl)urea]
9.01 | O=C(NCc1ccn2ccnc2c1)c1ccc(-c2cnn(CC34CC5CC(CC(C5)C3)C4)c2)s1 [Example 884]
